The record followed here is patent US12291503B2, “Crystalline form of compound, method for preparing the same, pharmaceutical composition and use” (Beijing Konruns Pharmaceutical Co., Ltd., priority 2019, dated 2025).

Data set [1] in a line: Bioavailability analysis (pharmacokinetics) of crystalline forms in mice. Set-up: AUClast / AUCInf: concentration or dose not given beside the values. It is filed as in vivo. The conditions noted are these: gavage, suspension in CMC-Na, mean. How it is done: Drug samples of different crystalline forms of the compound 1 were added to a solution of 1 CMC-Na respectively to prepare suspensions, which were administrated to mice by gavage. Drug samples of the different crystalline forms of the compound 1 were prepared into solutions in DMSO/PEG400/water and administered intravenously to mice. After drug administration, blood samples were collected from the dorsal vein of foot at different time points. After anticoagulation with heparin sodium, plasma was extracted by centrifugation. Plasma samples were analyzed by LC-MS/MS to obtain plasma drug concentrations. Pharmacokinetic parameters were calculated by WinNonlin (Phoenix™) The results of the bioavailability analysis for the crystalline form AB, the crystalline form M, and the crystalline form F are presented in Table 6.

Data set [2] is described as follows: Accelerated stability test of the crystalline form M and the crystalline form F (40±2° C., RH 75±5%, open petri dish). It is filed as physicochemical. The conditions noted are these: for Change in purity in 3 months' accelerated stability test: before and after grinding/pulverization. Here is the method: Accelerated stability test: the crystalline form M of the compound 1 was contained in a petri dish, which was placed in an open manner in a closed container (desiccator) with a relative humidity of 75±5%; the desiccator was placed in an incubator at 40±2° C. for 3 months, and small samples were taken out at 0, 1, 2, 3 months respectively for detection.
Accelerated stability test: the crystalline form F of the compound 1 was contained in a petri dish, which was put in an open manner in a closed container (desiccator) with a relative humidity of 75±5%; the desiccator was placed in an incubator at 40±2° C. for 3 months; small samples were taken out at 0, 1, 2 and 3 months respectively for detection.

For the next data set, the system named is NCI-H1703 cells. The data set can be described thus: Lung cancer subcutaneous xenotransplantation tumor model (NCI-H1703). It is filed as in vivo, mice. The conditions noted are these: for Tumor Inhibition Rate %: intragastric, 28 days, below line 'Micronization'. An excerpt: NCIH-1703 cells were inoculated subcutaneously in mice to establish a lung cancer subcutaneous xenotransplantation tumor model. After 28 days of intragastric administration of the crystalline form AB to animals, tumors were taken and tumor volume data were collected.

Another data set relates to MOLM-13 cells. Kind of data set: Human acute myeloid leukemia subcutaneous xenograft tumor model (MOLM-13). It is filed as in vivo, mice. An excerpt: Mice were inoculated subcutaneously with MOLM-13 cells and a human acute myeloid leukemia subcutaneous xenograft tumor model was established. After 14 days of intragastric administration of the crystalline form AB to animals, tumors were taken and tumor volume data were collected.

Data set [3] in a line: Accelerated stability test of the crystalline form AB (40±2° C., RH 75%±5%, vials sealed and open). The conditions noted are these: for Purity (HPLC method) Open / Purity (HPLC method) Sealed: 40±2° C., RH 75%±5%. In kind it is physicochemical. How it is done:
Accelerated stability test: the compound 1 was contained in vials, and these vials in sealed and open manners respectively were placed in closed containers (desiccators) with a relative humidity of 75%±5%; the desiccators were placed in an incubator at a temperature of 40±2° C. for 7 months; small samples were taken out at 0, 1, 2, 7 months respectively for detection.

The target in another data set is T1, AXL (Homo sapiens, UniProt P30530).
T1 sequence (P30530 26-894): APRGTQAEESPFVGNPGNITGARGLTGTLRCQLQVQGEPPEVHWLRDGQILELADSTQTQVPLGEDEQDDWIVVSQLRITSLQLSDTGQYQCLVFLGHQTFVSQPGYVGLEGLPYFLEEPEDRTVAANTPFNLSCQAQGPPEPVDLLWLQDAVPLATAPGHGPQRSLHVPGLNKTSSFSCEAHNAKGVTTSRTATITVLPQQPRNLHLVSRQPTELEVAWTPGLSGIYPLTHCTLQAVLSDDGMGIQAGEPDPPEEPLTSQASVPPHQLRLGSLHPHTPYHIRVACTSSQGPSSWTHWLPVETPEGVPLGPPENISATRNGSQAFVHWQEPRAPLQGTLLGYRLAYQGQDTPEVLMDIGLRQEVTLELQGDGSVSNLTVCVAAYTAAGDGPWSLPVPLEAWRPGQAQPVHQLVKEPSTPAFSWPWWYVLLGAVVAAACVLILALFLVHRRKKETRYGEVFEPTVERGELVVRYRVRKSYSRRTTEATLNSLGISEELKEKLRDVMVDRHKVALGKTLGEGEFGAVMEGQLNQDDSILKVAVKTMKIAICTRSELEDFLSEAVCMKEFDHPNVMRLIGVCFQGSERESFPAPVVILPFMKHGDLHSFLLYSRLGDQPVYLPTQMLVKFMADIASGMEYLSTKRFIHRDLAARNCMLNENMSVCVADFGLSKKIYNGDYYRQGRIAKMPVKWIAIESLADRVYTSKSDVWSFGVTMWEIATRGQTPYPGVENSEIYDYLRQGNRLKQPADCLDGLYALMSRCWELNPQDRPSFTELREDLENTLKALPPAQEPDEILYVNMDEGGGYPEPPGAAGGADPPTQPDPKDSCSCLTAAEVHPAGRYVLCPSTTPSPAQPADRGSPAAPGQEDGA
Kind of data set: IC50 against AXL. It is filed as biochemical.

The target in a further data set is VEGF-R2 (Homo sapiens, UniProt P35968). The data set can be described thus: IC50 against VEGF-R2. It is filed as biochemical.
Sequence of VEGF-R2 (P35968 20-1356): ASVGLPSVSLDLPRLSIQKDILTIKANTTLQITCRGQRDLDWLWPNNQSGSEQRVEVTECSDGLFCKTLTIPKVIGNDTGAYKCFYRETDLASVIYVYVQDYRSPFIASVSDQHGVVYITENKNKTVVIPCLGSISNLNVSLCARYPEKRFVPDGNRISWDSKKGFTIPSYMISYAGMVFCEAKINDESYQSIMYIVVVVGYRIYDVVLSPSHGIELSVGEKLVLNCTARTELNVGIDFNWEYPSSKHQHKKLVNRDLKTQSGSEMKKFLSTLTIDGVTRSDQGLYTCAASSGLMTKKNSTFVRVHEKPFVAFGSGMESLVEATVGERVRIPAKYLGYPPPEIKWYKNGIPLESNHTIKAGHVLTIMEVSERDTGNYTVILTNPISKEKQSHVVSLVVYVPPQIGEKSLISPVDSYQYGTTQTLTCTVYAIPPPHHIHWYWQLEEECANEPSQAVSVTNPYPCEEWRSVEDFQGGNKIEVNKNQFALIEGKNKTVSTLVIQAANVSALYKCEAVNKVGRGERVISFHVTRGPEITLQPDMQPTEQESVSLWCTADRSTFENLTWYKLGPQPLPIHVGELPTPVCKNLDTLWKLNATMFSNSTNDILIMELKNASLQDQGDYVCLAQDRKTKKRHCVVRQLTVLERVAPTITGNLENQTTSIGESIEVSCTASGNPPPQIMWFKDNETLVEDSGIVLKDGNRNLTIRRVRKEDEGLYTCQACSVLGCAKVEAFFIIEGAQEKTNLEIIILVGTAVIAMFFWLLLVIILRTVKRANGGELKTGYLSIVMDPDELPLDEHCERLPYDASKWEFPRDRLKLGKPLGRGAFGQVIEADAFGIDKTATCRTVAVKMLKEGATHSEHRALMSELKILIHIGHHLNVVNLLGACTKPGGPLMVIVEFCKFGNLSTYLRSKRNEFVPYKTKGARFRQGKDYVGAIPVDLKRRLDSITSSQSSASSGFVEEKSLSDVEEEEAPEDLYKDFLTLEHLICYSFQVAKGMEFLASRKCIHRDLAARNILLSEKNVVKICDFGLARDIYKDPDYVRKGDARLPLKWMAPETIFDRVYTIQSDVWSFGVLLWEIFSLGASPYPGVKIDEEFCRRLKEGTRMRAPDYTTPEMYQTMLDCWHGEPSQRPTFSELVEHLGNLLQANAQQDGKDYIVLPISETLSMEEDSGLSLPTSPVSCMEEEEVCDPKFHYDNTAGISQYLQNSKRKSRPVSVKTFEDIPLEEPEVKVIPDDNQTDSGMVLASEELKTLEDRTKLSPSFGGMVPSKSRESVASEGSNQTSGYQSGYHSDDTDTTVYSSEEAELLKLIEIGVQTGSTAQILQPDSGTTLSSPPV
Where [4] appears, read: 1 month, open, 40±2° C., RH 75±5%.
Where [5] appears, read: 2 months, open, 40±2° C., RH 75±5%.
The mark [6] stands for this setting: 3 months, open, 40±2° C., RH 75±5%.

Like-named read-outs stand apart in the source and are kept apart here.

With `COc1cc2c(Oc3ccc(NC(=O)C4(C(=O)Nc5ccc(F)cc5)CC4)cc3F)ccnc2cc1OCCCCCC(=O)O` [crystalline form F, 6-[[4-[2-fluoro-4-[[1-[(4-fluorophenyl)aminoformyl]cyclopropanecarbonyl]amino]phenoxy]-6-methoxy-7-quinolyl]oxy] hexanoic acid], in data set [1], the AUCInf turned out to be 675 ng·h/mL, the “AUC_% Extrap” value was found to be 22.7%, the AUClast was determined as 505 ng·h/mL and the AUClast/D is 50.5 ng·h/mL per mg/kg. Moreover, in data set [1], the Cmax is reported as 201 ng/mL, the MRT was 3.05 h, the T1/2 was 1.7 h and the Tmax is given as 1.5 h. Moreover, in data set [2] (0 month), the “Purity (HPLC method) After grinding” value is 99.13% and the “Purity (HPLC method) Before grinding” value is given as 99.13%. In addition, in data set [2] (setting [4]), the “Purity (HPLC method) After grinding” value was found to be 99.32% and the “Purity (HPLC method) Before grinding” value came out at 99.33%. Besides, in data set [2] (setting [5]), the “Purity (HPLC method) After grinding” value came to 99.07% and the “Purity (HPLC method) Before grinding” value was 99.09%. Further, in data set [2] (setting [6]), the “Purity (HPLC method) After grinding” value worked out at 99.06% and the “Purity (HPLC method) Before grinding” value is 99.07%. In data set [2], the “Change in purity in 3 months' accelerated stability test” value is “substantially no change in purity”.

Turning to `COc1cc2c(Oc3ccc(NC(=O)C4(C(=O)Nc5ccc(F)cc5)CC4)cc3F)ccnc2cc1OCCCCCC(=O)O` [crystalline form AB, 6-[[4-[2-fluoro-4-[[1-[(4-fluorophenyl)aminoformyl]cyclopropanecarbonyl]amino]phenoxy]-6-methoxy-7-quinolyl]oxy] hexanoic acid], the “Tumor growth” value was “significantly inhibit tumor growth” in the data set on NCI-H1703 cells (6.25 mg/kg); “significantly inhibit tumor growth and tumor regression was observed for some mice” with NCI-H1703 cells (12.5 mg/kg); “significantly inhibited tumor growth and the number of tumor regression cases presented a gradual increase” in the data set with NCI-H1703 cells (12.5 mg/kg, 25 mg/kg and 50 mg/kg); “significantly inhibited tumor growth” with MOLM-13 cells (3 mg/kg); “inhibited tumor growth, and the tumor disappeared in some mice on day 14 after the administration” in the data set on MOLM-13 cells (6 mg/kg or 6.25 mg/kg). Further, the “Tumor Inhibition Rate %” value in the data set with NCI-H1703 cells (6.25 mg/kg) is given as 87.0%; with NCI-H1703 cells (12.5 mg/kg) it was 94.7%; in the data set with NCI-H1703 cells (25 mg/kg), 98.5%; in the data set with NCI-H1703 cells (50 mg/kg), 99.2%; in the data set on MOLM-13 cells (1.5 mg/kg, intragastric, 14 days) it was 51.5%; in the data set on MOLM-13 cells (3 mg/kg, intragastric, 14 days), 81.9%. In addition, the “Tumor Inhibition Rate %” value in the data set with MOLM-13 cells (6 mg/kg, intragastric, 14 days) amounted to 96.7%; in the data set with MOLM-13 cells (6.25 mg/kg, intragastric, 14 days), 95.6%. The “median effective dose EC50” value in the data set with MOLM-13 cells (intragastric, 14 days) is reported as 1.5 mg/kg. For the same molecule, the “Purity (HPLC method) Open” value is on record as 99.36% in data set [3] (1 month), 99.35% in data set [3] (2 months) and 99.36% in data set [3] (7 months). In addition, the results for the “Purity (HPLC method) Sealed” value in data set [3] (1 month), in data set [3] (2 months) and in data set [3] (7 months) were 99.32%, 99.34% and 99.32%, respectively. Further, in data set [3] (accelerated stability test, 7 months), the “Stability (conclusion in words)” value was “good stability”. Also, the “Purity (HPLC method)” value in data set [3] (storage time 0 month) was found to be 99.35%. Moreover, the values for the IC50 against AXL and against VEGF-R2 were 0.24 nM and 0.38 nM, respectively. In data set [1], this molecule gave an AUCInf of 2414 ng·h/mL. In addition, the “AUC_% Extrap” value in data set [1] is on record as 1.19%. Moreover, the AUClast in data set [1] turned out to be 2399 ng·h/mL. Also, the AUClast/D in data set [1] came to 240 ng·h/mL per mg/kg. The molecule further showed a Cmax in data set [1] of 930 ng/mL. The molecule also registered an MRT in data set [1] of 1.91 h. In data set [1], this molecule displayed a T1/2 of 0.86 h. For the same molecule, the Tmax in data set [1] (mouse, plasma, po, 10 mg/kg, read-out: Tmax) stood at 1.33 h.

As for `COc1cc2c(Oc3ccc(NC(=O)C4(C(=O)Nc5ccc(F)cc5)CC4)cc3F)ccnc2cc1OCCCCCC(=O)O` [crystalline form M, 6-[[4-[2-fluoro-4-[[1-[(4-fluorophenyl)aminoformyl]cyclopropanecarbonyl]amino]phenoxy]-6-methoxy-7-quinolyl]oxy] hexanoic acid], in data set [1], the AUCInf worked out at 1110 ng·h/mL, the “AUC_% Extrap” value was 39%, the AUClast was determined as 581 ng·h/mL and the AUClast/D turned out to be 58.1 ng·h/mL per mg/kg. Moreover, in data set [1], the Cmax came to 200 ng/mL, the MRT turned out to be 5.65 h, the T1/2 was found to be 3.61 h and the Tmax came out at 0.917 h. Moreover, in data set [2] (0 month), the “Purity (HPLC method) After grinding” value turned out to be 99.22% and the “Purity (HPLC method) Before grinding” value worked out at 99.21%. In data set [2] (setting [4]), the “Purity (HPLC method) After grinding” value was 99.37% and the “Purity (HPLC method) Before grinding” value is 99.36%. In addition, in data set [2] (setting [5]), the “Purity (HPLC method) After grinding” value worked out at 99.17% and the “Purity (HPLC method) Before grinding” value came out at 99.16%. In data set [2] (setting [6]), the “Purity (HPLC method) After grinding” value is on record as 99.19% and the “Purity (HPLC method) Before grinding” value is 99.19%. In addition, the “Change in purity in 3 months' accelerated stability test” value in data set [2] is “substantially no change in purity”.

What is called Cmax is the peak of the concentration-time curve. As a reminder, the MRT is the average time that molecules of a dose stay in the body. Broadly, the Tmax is the time at which the peak concentration occurs. The term IC50 denotes the midpoint of a concentration-inhibition curve.
